{"source": "patent US7453009B2", "about": "“Hydroxybiphenyl carboxylic acids and derivatives, method for producing the same and their use” (Sanofi-Aventis Deutschland GmbH, priority 2004, dated 2008)", "molecular_target": "T1, recombinant hPTP1B (phosphotyrosine phosphatase 1B) (Homo sapiens, UniProt P18031)", "T1 construct": "but without the carboxy-terminal hydrophobic region (corresponding to 1-299 aa); made in house; host or cells: Sf9 insect cells (baculovirus, Bac-to-Bac, pFASTBAC)", "T1 sequence (P18031 1-299)": "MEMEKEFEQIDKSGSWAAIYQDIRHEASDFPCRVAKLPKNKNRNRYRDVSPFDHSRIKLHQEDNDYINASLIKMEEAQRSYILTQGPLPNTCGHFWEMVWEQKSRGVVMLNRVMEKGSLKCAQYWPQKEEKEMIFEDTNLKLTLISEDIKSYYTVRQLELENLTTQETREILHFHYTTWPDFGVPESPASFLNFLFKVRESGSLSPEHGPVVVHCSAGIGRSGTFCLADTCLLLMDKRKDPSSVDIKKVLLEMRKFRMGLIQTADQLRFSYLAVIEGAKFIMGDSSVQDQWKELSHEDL", "assay": "Enzymatic test for inhibition of a phosphatase (phosphopeptide dephosphorylation / p-nitrophenyl phosphate cleavage)", "type": "biochemical", "conditions": "Table 3 Biological activity; inhibition of PTP1B; table does not say which substrate format (A phosphopeptide or B pNPP)", "description": "Enzymatic Test Systems for Detecting Inhibition of a Phosphatase\nThe compounds of the formula I were tested for their phosphatase-inhibiting effect in an in vitro assay. The enzyme preparation and the performance of the assay was carried out as follows.\nA) Cell Culture: • Sf9 cells (=Spodoptera frugiperda cell type; obtainable from invitrogen) are cultured in Grace's supplemented medium (Gibco-BRL) with 10% heat-inactivated fetal calf serum (Gibco-BRL) in spinner flasks at 28° C. in accordance with the protocol of Summers and Smith (A Manual for Methods for Baculovirus Vectors and Insect Culture Procedures [Bulletin No. 15555]. Texas A & M University, Texas Agricultural Experiment Station, College Station, Tex., 1987). • Construction of recombinant Baculovirus transfer vectors: cDNA coding for the regulatory and catalytic domains of human PTP1B, but without the carboxy-terminal hydrophobic region (corresponding to 1-299 aa) was obtained by polymerase chain reaction via primers with attached cloning sites and suitable cDNA templates (obtainable for example from invitrogen) and then cloned into baculovirus expression vectors (Amersham Pharmacia Biotech.). The recombinant baculoviruses were prepared with the aid of the Bac-to-Bac baculovirus expression system (obtainable from Gibco-BRL). The gene was cloned into the pFASTBAC donor plasmid (obtainable from Life Technologies). The resulting plasmid was transformed into competent DH10BAC Escherichia coli cells (obtainable from Life Technologies). After transposition and antibiotic selection, the recombinant plasmid DNA was isolated from selected E. coli colonies and then used for the transfection of Sf9 insect cells. The virus particle in the supernatant medium was amplified three times up to a viral stock volume of 500 ml.\nB) Production of Recombinant Protein: • Baculovirus infection of a 500 ml spinner culture of Sf9 cells was essentially carried out as described by Summers and Smith (see above). Sf9 cells at a density of 1-3×10^6 cells/ml were pelleted by centrifugation at 300 g for 5 min, the supernatant was removed, and the cells were resuspended in a density of 1×10^7 cells/ml in a suitable recombinant viral stock (MOI 10). After careful shaking at room temperature for 1.5 h, fresh medium was added in order to achieve a cell density of 1×10^6 cells/ml. The cells were then cultured in the suspension at 28° C. for suitable periods after postinfection.\nC) Cellular Fractionation and Complete Cell Extracts of Infected Sf9 Cells: • After the postinfection, aliquots were subjected to an analysis of protein expression by SDS-PAGE and Western blot analysis. The cellular fractionation was carried out as described (Cromlish, W. and Kennedy, B. Biochem. Pharmacol. 52: 1777-1785, 1996). Complete cell extracts were obtained from 1 ml aliquots of the infected Sf9 cells after certain times postinfection. The pelleted cells (300×g, 5 min) were washed once in phosphate-buffered saline (4° C.), resuspended in 50 μl of water and disrupted by repeated freezing/thawing. Protein concentrations were determined with the aid of the Bradford method and bovine serum albumin as standard.\nA) Dephosphorylation of a Phosphopeptide: • This assay is based on the release of phosphate from a consensus substrate peptide which is detected in the nanomolar concentration range by the malachite green/ammonium molybdate method (Lanzetta, P. A., Alvarez, L. J., Reinach, P. S., Candia, O. A. Anal Biochem. 100: 95-97, 1979) adapted for the microtiter plate format. The dodecatrisphosphopeptide TRDIYETDYYRK (Biotrend, Cologne) corresponds to amino acids 1142-1153 of the catalytic domain of the insulin receptor and is (auto)phosphorylated on tyrosine residues 1146, 1150 and 1151. […]", "data": [{"smiles": "COc1ccc(CN(Cc2ccc(-c3ccc(O)c(C(=O)O)c3)cc2)C(=O)c2ccc3c(c2)OCO3)cc1", "note": "[Example 2, 4′-{[(Benzo[1,3]dioxole-5-carbonyl)-(4-methoxybenzyl)amino]-methyl}-4-hydroxybiphenyl-3-carboxylic acid]", "values": [{"measurement": "IC50", "result": 1200, "unit": "nM"}]}, {"smiles": "O=C(O)c1cc(-c2ccc(CN(Cc3ccccc3)C(=O)c3ccc(Br)cc3)cc2)ccc1O", "note": "[Example 21, 4′-{[Benzyl-(4-bromobenzoyl)amino]methyl}-4-hydroxybiphenyl-3-carboxylic acid]", "values": [{"measurement": "IC50", "result": 600, "unit": "nM"}]}, {"smiles": "O=C(O)c1cc(-c2ccc(CN(CC3CC3)C(=O)C3CCCCC3)cc2)ccc1O", "note": "[Example 5, 4′-[(Cyclohexanecarbonylcyclopropylmethylamino)methyl]-4-hydroxybiphenyl-3-carboxylic acid]", "values": [{"measurement": "IC50", "result": 1600, "unit": "nM"}]}, {"smiles": "O=C(O)c1cc(-c2ccc(CN(CCc3ccccc3)C(=O)c3ccc4c(c3)OCO4)cc2)ccc1O", "note": "[Example 11, 4′-{[(Benzo[1,3]dioxole-5-carbonyl)phenethylamino]methyl}-4-hydroxybiphenyl-3-carboxylic acid]", "values": [{"measurement": "IC50", "result": 1600, "unit": "nM"}]}, {"smiles": "CCCCC(=O)N(Cc1ccc(-c2ccc(O)c(C(=O)O)c2)cc1)CC1CC1", "note": "[Example 8, 4′-[(Cyclopropylmethylpentanoylamino)methyl]-4-hydroxybiphenyl-3-carboxylic acid]", "values": [{"measurement": "IC50", "result": 1900, "unit": "nM"}]}, {"smiles": "O=C(O)c1cc(-c2ccc(CN(Cc3ccccc3)C(=O)c3ccco3)cc2)ccc1O", "note": "[Example 22, 4′-{[Benzyl(furan-2-carbonyl)amino]methyl}-4-hydroxybiphenyl-3-carboxylic acid]", "values": [{"measurement": "IC50", "result": 1300, "unit": "nM"}]}, {"smiles": "CCCCCN(Cc1ccc(-c2ccc(O)c(C(=O)O)c2)cc1)C(=O)c1ccc2c(c1)OCO2", "note": "[Example 15, 4′-{[(Benzo[1,3]dioxole-5-carbonyl)pentylamino]methyl}-4-hydroxybiphenyl-3-carboxylic acid]", "values": [{"measurement": "IC50", "result": 1500, "unit": "nM"}]}, {"smiles": "COc1cccc(C(=O)N(Cc2ccccc2)Cc2ccc(-c3ccc(O)c(C(=O)O)c3)cc2)c1", "note": "[Example 12, 4′-{[Benzyl-(3-methoxybenzoyl)amino]methyl}-4-hydroxybiphenyl-3-carboxylic acid]", "values": [{"measurement": "IC50", "result": 1600, "unit": "nM"}]}, {"smiles": "O=C(O)c1cc(-c2ccc(CN(Cc3ccc(F)cc3)C(=O)c3ccc4c(c3)OCO4)cc2)ccc1O", "note": "[Example 16, 4′-{[(Benzo[1,3]dioxole-5-carbonyl)-(4-fluorobenzyl)amino]methyl}-4-hydroxy-biphenyl-3-carboxylic acid]", "values": [{"measurement": "IC50", "result": 1900, "unit": "nM"}]}, {"smiles": "COc1cccc(C(=O)N(Cc2ccc(F)cc2)Cc2ccc(-c3ccc(O)c(C(=O)O)c3)cc2)c1", "note": "[Example 17, 4′-{[(4-Fluorobenzyl)-(3-methoxybenzoyl)amino]methyl}-4-hydroxybiphenyl-3-carboxylic acid]", "values": [{"measurement": "IC50", "result": 1600, "unit": "nM"}]}, {"smiles": "COc1ccccc1CN(Cc1ccc(-c2ccc(O)c(C(=O)O)c2)cc1)C(=O)c1ccc(Br)cc1", "note": "[Example 1, 4′-{[(4-Bromobenzoyl)-(2-methoxybenzyl)amino]methyl}-4-hydroxybiphenyl-3-carboxylic acid]", "values": [{"measurement": "IC50", "result": 1200, "unit": "nM"}]}, {"smiles": "O=C(O)c1cc(-c2ccc(CN(Cc3ccc(F)cc3)C(=O)c3ccc(Br)cc3)cc2)ccc1O", "note": "[Example 23, 4′-{[(4-Bromobenzoyl)-(4-fluorobenzyl)amino]methyl}-4-hydroxybiphenyl-3-carboxylic acid]", "values": [{"measurement": "IC50", "result": 500, "unit": "nM"}]}, {"smiles": "COc1ccccc1CN(Cc1ccc(-c2ccc(O)c(C(=O)O)c2)cc1)C(=O)C1CCCCC1", "note": "[Example 6, 4′-{[Cyclohexanecarbonyl-(2-methoxybenzyl)amino]methyl}-4-hydroxybiphenyl-3-carboxylic acid]", "values": [{"measurement": "IC50", "result": 1300, "unit": "nM"}]}, {"smiles": "O=C(O)c1cc(-c2ccc(CN(Cc3ccc(F)cc3)C(=O)/C=C/c3ccccc3)cc2)ccc1O", "note": "[Example 18, 4′-{[(4-Fluorobenzyl)-(3-phenylacryloyl)amino]methyl}-4-hydroxybiphenyl-3-carboxylic acid]", "values": [{"measurement": "IC50", "result": 1450, "unit": "nM"}]}, {"smiles": "COc1cccc(C(=O)N(Cc2ccc(-c3ccc(O)c(C(=O)O)c3)cc2)Cc2ccccc2OC)c1", "note": "[Example 4, 4-Hydroxy-4′-{[(3-methoxybenzoyl)-(2-methoxybenzyl)amino]-methyl}biphenyl-3-carboxylic acid]", "values": [{"measurement": "IC50", "result": 1400, "unit": "nM"}]}, {"smiles": "COc1cccc(C(=O)N(Cc2ccc(C)cc2)Cc2ccc(-c3ccc(O)c(C(=O)O)c3)cc2)c1", "note": "[Example 13, 4-Hydroxy-4′-{[(3-methoxybenzoyl)-(4-methylbenzyl)amino]methyl}-biphenyl-3-carboxylic acid]", "values": [{"measurement": "IC50", "result": 1700, "unit": "nM"}]}, {"smiles": "Cc1ccc(CN(Cc2ccc(-c3ccc(O)c(C(=O)O)c3)cc2)C(=O)C2CCCCC2)cc1", "note": "[Example 10, 4′-{[Cyclohexanecarbonyl-(4-methylbenzyl)amino]methyl}-4-hydroxybiphenyl-3-carboxylic acid]", "values": [{"measurement": "IC50", "result": 1600, "unit": "nM"}]}, {"smiles": "Cc1ccc(CN(Cc2ccc(-c3ccc(O)c(C(=O)O)c3)cc2)C(=O)c2ccc(Br)cc2)cc1", "note": "[Example 7, 4′-{[(4-Bromobenzoyl)-(4-methylbenzyl)amino]methyl}-4-hydroxybiphenyl-3-carboxylic acid]", "values": [{"measurement": "IC50", "result": 1000, "unit": "nM"}]}, {"smiles": "O=C(O)c1cc(-c2ccc(CN(C(=O)c3ccc4c(c3)OCO4)C3CCCC3)cc2)ccc1O", "note": "[Example 20, 4′-{[(Benzo[1,3]dioxole-5-carbonyl)cyclopentylamino]methyl}-4-hydroxy-biphenyl-3-carboxylic acid]", "values": [{"measurement": "IC50", "result": 1800, "unit": "nM"}]}, {"smiles": "CCCCC(=O)N(Cc1ccc(OC)cc1)Cc1ccc(-c2ccc(O)c(C(=O)O)c2)cc1", "note": "[Example 24, 4-Hydroxy-4′-{[(4-methoxybenzyl)pentanoylamino]methyl}-biphenyl-3-carboxylic acid]", "values": [{"measurement": "IC50", "result": 600, "unit": "nM"}]}, {"smiles": "O=C(O)c1cc(-c2ccc(CN(CC3CC3)C(=O)c3ccc4c(c3)OCO4)cc2)ccc1O", "note": "[Example 14, 4′-{[(Benzo[1,3]dioxole-5-carbonyl)cyclopropylmethylamino]methyl}-4-hydroxybiphenyl-3-carboxylic acid]", "values": [{"measurement": "IC50", "result": 1800, "unit": "nM"}]}, {"smiles": "O=C(O)c1cc(-c2ccc(CN(Cc3ccccc3)C(=O)c3ccc4c(c3)OCO4)cc2)ccc1O", "note": "[Example 3, 4′-{[(Benzo[1,3]dioxole-5-carbonyl)benzylamino]methyl}-4-hydroxybiphenyl-3-carboxylic acid]", "values": [{"measurement": "IC50", "result": 1500, "unit": "nM"}]}, {"smiles": "Cc1ccc(CN(Cc2ccc(-c3ccc(O)c(C(=O)O)c3)cc2)C(=O)c2ccc3c(c2)OCO3)cc1", "note": "[Example 19, 4′-{[(Benzo[1,3]dioxole-5-carbonyl)-(4-methylbenzyl)amino]methyl}-4-hydroxy-biphenyl-3-carboxylic acid]", "values": [{"measurement": "IC50", "result": 1280, "unit": "nM"}]}]}
